# Columns and labels:
# [1] = system: Mycobacterium tuberculosis; test: Antitubercular activity against Mycobacterium tuberculosis H37Rv ATCC 27294 assessed as growth inhibition after 24 hr by BACTEC-460 radiometric susceptibility assay; assay type: functional; details: H37Rv ATCC 27294, 24 h
# [2] = system: Mycobacterium tuberculosis; test: Antimycobacterial activity against Mycobacterium tuberculosis H37Rv ATCC 27294 assessed as growth inhibition by agar dilution method; assay type: functional
SMILES,MIC [1] [µg/mL],MIC [2] [µg/mL]
"COc1cc(C(=O)O[C@H]2CCC(=O)c3ccccc32)cc(OC)c1OC [4-O-(3,4,5-TRIMETHOXYBENZOYL)-ALPHA-TETRALONE]",100,
O=C(O[C@H]1CCC(=O)c2ccccc21)c1ccccc1 [4-O-BENZOYL-ALPHA-TETRALONE],100,
COc1cccc(C(=O)O[C@H]2CCC(=O)c3ccccc32)c1 [4-O-META-ANISOYL-ALPHA-TETRALONE],100,
CCCCCCCCCCCCCC(=O)O[C@H]1CCC(=O)c2ccccc21 [4-O-MYRICITOYL-ALPHA-TETRALONE],50,
CCCCCCCCCCCCCCCC(=O)O[C@H]1CCC(=O)c2ccccc21 [4-O-PALMITOYL-ALPHATETRALONE],100,
O=C1CC[C@H](O)c2ccccc21 [(-)-4-HYDROXY-ALPHA-TETRALONE],50,4
O=C1CC[C@H](O[C@@H]2O[C@H](CO)[C@@H](O)[C@H](O)[C@H]2O)c2ccccc21 [TETRALONE-4-O-BETA-D-GLUCOPYRANOSIDE],100,

# Source: ChEMBL document CHEMBL3046611, “Anti-tubercular agents from Ammannia baccifera (Linn.)” (2013)
